Legend:
Format in all cases: cell-based, human
IL-5 = IL-5 production by latex specific oligoclonal T cells (ELISA on culture supernatants); conditions: for IL-5: supernatant at 48 hours
Experimental: (§1) Representative stimulatory and non-stimulatory peptides were selected and T cells cultured in triplicate with these peptides. At 48 hours 50 μl of supernatant was harvested from the cultures and IL-5 and IFNγ were assayed by ELISA using paired cytokine antibodies (from Pharmingen Becton Dickinson, USA and Endogen, USA respectively). For this, opaque flat bottom ELISA plates (Nalgene, Nunc International) were coated with 30 μl capture antibody at 2 μg/ml in 0.1 M NaHCO3 pH 8.2 coating buffer overnight at 4° C. After washing three times with PBS/0.5% Tween the wells were blocked with 3% BSA/PBS at room temperature for 2 hours. The plates were washed and 30 μL pooled triplicate culture supernatants added in duplicate. […] Light emission was read immediately on a Lumicount microplate Glow Luminometer (Packard Instrument Company). A standard curve was run each time using known concentrations of standard cytokine samples and the concentrations of IL-S and IFNγ in the culture supernatants calculated accordingly. The lower limit of detection of the IL-5 assay was 20 pg/ml and the lower limit of detection of the IFN-γ assay was 2 pg/ml.

IFNγ = IFNγ production by latex specific oligoclonal T cells (ELISA on culture supernatants); conditions: supernatant at 48 hours
Experimental: as §1

[1] = tested on: latex specific T cell lines; assay: Oligoclonal T cell proliferation assay (3H-thymidine incorporation); design: key to Proliferation inducing (+) or non-inducing (−) peptide: Proliferation inducing and non-inducing peptides are indicated by (+) and (−) respectively; Proliferation inducing and non-inducing peptides are indicated by (+) and (−) respectively; conditions: for Oligoclonal proliferative response: 4 day cultures
Experimental: Latex specific T cell lines were isolated using our well established methods for the generation of allergen specific oligoclonal T cell populations (O'Hehir et al., 1987). An initial primary culture was performed for each patient to determine the optimal concentration of LAL for stimulation. For this, peripheral blood mononuclear cells (PBMC) separated from heparinised venous blood by density centrifugation (2×10^5/well) were stimulated with LAL over a concentration range 0.03 to 100 μg/ml, with control cultures of PBMC alone or stimulated with tetanus toxoid. All cultures were maintained in complete medium (RPMI-1640, Gibco Life Technologies supplemented with 2 mmol/L L-glutamine, 100 IU/ml penicillin-streptomycin and 5% screened, heat inactivated human AB serum [Sigma]). […] Therefore, to generate T cell lines, PBMC (2.5×10^6/well) were stimulated for 1 week with LAL at a concentration of 20 μg/ml in 24-well tissue culture plates (Costar, USA). After 7 days, lymphoblasts (1×10^6/well) were restimulated for one week with LAL at a concentration of 20 μg/ml in the presence of an equal number of irradiated (3000 rad) autologous PBMC as antigen presenting cells (APC). On days 2 and 4, cultures were supplemented with Lymphocult-T (5% v/v; Biotest Folex, Germany) and fresh medium. At the end of the second week, lymphoblasts were restimulated for one week with rhev b 5/MBP at a concentration of 20 μg/ml as described above. Oligoclonal T cells were recovered, washed and tested in proliferation and cytokine assays (as described below) either fresh or after cryopreservation in liquid nitrogen. We have previously shown that CD4^+ T cells are preferentially expanded in these cultures.
Oligoclonal T cell blasts (5×10^4) were incubated in 96-well round bottom plates (Linbro, ICN Biomedicals, USA) in triplicate with equal numbers of irradiated APC in the presence of LAL at concentrations ranging from 0.03-100 μg/ml, rHev b 5/MBP (10 and 20 μg/ml), MBP (10 and 20 μg/ml), overlapping peptides of the Hev b 5 sequence (10 and 30 μg/ml), Lymphocult-T (10 IU/ml) or PHA (3 μg/ml). Cultures of T cells and APC in the absence of antigen, T cells alone and APC alone in the absence of antigen were included as controls. After 72 hours cultures were pulsed with 1 μCi of ^3H-thymidine (^3HTdR; Du Pont, NEN) and harvested 12-16 hours later. Proliferation as correlated with ^3HTdR incorporation was measured by liquid scintillation spectroscopy. Results are expressed as mean counts per minute (cpm) for triplicate cultures with standard deviation (SD; ±20% for all experiments).

[2] = P1 T cell line, peptide 10 μg/ml
[3] = P1 T cell line, peptide 30 μg/ml
[4] = P2 T cell line, peptide 10 μg/ml
[5] = P2 T cell line, peptide 30 μg/ml
[6] = P3 T cell line, peptide 10 μg/ml
[7] = P3 T cell line, peptide 30 μg/ml
[8] = P4 T cell line, peptide 10 μg/ml
[9] = P4 T cell line, peptide 30 μg/ml

“TKETETEAPAAPAEGEKPAE [Hev b 5 (109-128)]” was tested, and the IL-5 (IL-5; [2]) was 0 pg/mL, the IL-5 (IL-5; [3]) was 69 pg/mL and the IL-5/IFNγ ratio (IL-5; [4]) was 4. The IL-5 (IL-5; [4]) was 293 pg/mL, the IL-5/IFNγ ratio (IL-5; [5]) was 6.1 and the IL-5 (IL-5; [5]) was 595 pg/mL. For the same sequence, the IL-5/IFNγ ratio (IL-5; [6]) was 5.5, the IL-5 (IL-5; [6]) was 1403 pg/mL and the IL-5/IFNγ ratio (IL-5; [7]) was 5.3. For the same sequence, the IL-5 (IL-5; [7]) was 1559 pg/mL, the IL-5/IFNγ ratio (IL-5; [8]) was 166 and the IL-5 (IL-5; [8]) was 166 pg/mL. The IL-5/IFNγ ratio (IL-5; [9]) was 212, the IL-5 (IL-5; [9]) was 212 pg/mL and the “secretion of IL-5 (in words)” value (IL-5; patient 4 T cell line) was “secretion of IL-5”. The IFNγ (IFNγ; [2]) was 0 pg/mL, the IFNγ (IFNγ; [3]) was 0 pg/mL and the IFNγ (IFNγ; [4]) was 73 pg/mL. It also gave an IFNγ (IFNγ; [5]) of 97 pg/mL, an IFNγ (IFNγ; [6]) of 257 pg/mL and an IFNγ (IFNγ; [7]) of 292 pg/mL. For the same sequence, the IFNγ (IFNγ; [8]) was 0 pg/mL, the IFNγ (IFNγ; [9]) was 0 pg/mL and the “Proliferation inducing (+) or non-inducing (−) peptide” value ([1]; P1 T cell line) was 109-128 (−). For the same sequence, the Oligoclonal proliferative response ([1]; P1 T cell line, antigen 10 μg/ml) was 8.2 counts per minute × 10^−3, the Oligoclonal proliferative response ([1]; P1 T cell line, antigen 30 μg/ml) was 5.6 counts per minute × 10^−3 and the “Proliferation inducing (+) or non-inducing (−) peptide” value ([1]; P2 T cell line) was 109-128 (+). For the same sequence, the Oligoclonal proliferative response ([1]; P2 T cell line, antigen 10 μg/ml) was 36.9 counts per minute × 10^−3, the Oligoclonal proliferative response ([1]; P2 T cell line, antigen 30 μg/ml) was 42.7 counts per minute × 10^−3 and the “Proliferation inducing (+) or non-inducing (−) peptide” value ([1]; P3 T cell line) was 109-128 (+). The Oligoclonal proliferative response ([1]; P3 T cell line, antigen 10 μg/ml) was 13.7 counts per minute × 10^−3, the Oligoclonal proliferative response ([1]; P3 T cell line, antigen 30 μg/ml) was 17.3 counts per minute × 10^−3 and the “Proliferation inducing (+) or non-inducing (−) peptide” value ([1]; P4 T cell line) was 109-128 (+). For the same sequence, the Oligoclonal proliferative response ([1]; P4 T cell line, antigen 10 μg/ml) was 2.3 counts per minute × 10^−3, the Oligoclonal proliferative response ([1]; P4 T cell line, antigen 30 μg/ml) was 3.0 counts per minute × 10^−3 and the Oligoclonal proliferative response ([1]; P5 T cell line, antigen 10 μg/ml) was 1.3 counts per minute × 10^−3. For the same sequence, the Oligoclonal proliferative response ([1]; P5 T cell line, antigen 30 μg/ml) was 0.9 counts per minute × 10^−3, the Oligoclonal proliferative response ([1]; P6 T cell line, antigen 10 μg/ml) was 0.9 counts per minute × 10^−3 and the Oligoclonal proliferative response ([1]; P6 T cell line, antigen 30 μg/ml) was 0.6 counts per minute × 10^−3. The “donors whose T cells proliferated in response to the peptide” value ([1]; five donors with IgE reactivity to rHev b 5/MBP) was “three of the five donors”.
